From patent publication US12643887B2, “Heterocyclic derivatives with cardiomyocyte proliferation activity for treatment of heart diseases” (Tongji University, priority 2019, dated 2026)

Experiments:
human CLK1 = target: T1, human CLK1 (Homo sapiens, UniProt P49759); assay: CLK1 enzyme assay (ADP-Glo); type: biochemical; settings: ADP-Glo, ATP 10 μM; read-out: CLK1 IC50
T1 construct: Recombinant human CLK1 (129-end); GST (N); purchased SignalChem C57-11G; host or cells: Sf9 insect cells
Description: The ability of compounds to inhibit human CLK1 kinase activities was determined using a commercially available ADP-Glo™ Kinase Assay kit (Promega, Cat #V9102) according to the manufacturer's protocol.
Recombinant human CLK1 (129-end) (expressed in Sf9 insect cells with an N-terminal GST tag) was purchased from SignalChem (Cat #C57-11G). Recombinant full length human MBP (expressed in E. Coli cells with an N-terminal GST tag.) was purchased from SignalChem (Cat #M42-54G). This assay, run in a 384-well plate format, is a generic method for measuring kinase activities using an ADP-Glo Kinase Assay Kit. The basic assay procedure involves two steps: (1) Enzymatic step: inhibitors are incubated with the kinase and then ATP (included in the ADP-Glo Kinase Assay Kit) and the MBP protein are added to start the enzymatic reaction; (2) Detection step: after the kinase reaction, first ADP-Glo™ Reagent is added to terminate the kinase reaction and deplete the remaining ATP. Second, the Kinase Detection Reagent is added to simultaneously convert ADP to ATP and allow the newly synthesized ATP to be measured using a luciferase/luciferin reaction. The light generated is measured using a luminometer.
Briefly, CLK1 (16 nM) in the enzymatic buffer solutions (40 mM Tris, pH 7.5, 20 mM MgCl2, 0.1 mg/ml BSA, 50 μM DTT) were mixed with various concentrations of inhibitors (dissolved in 100% DMSO). These solutions were incubated for 30 minutes at 25° C., and subsequently a mixture of substrate peptide and ATP was added with the final peptide and ATP concentrations at 2 μM and 10 μM, respectively. The final reaction mixture of enzyme-substrate-ATP-compound was incubated for 60 minutes at 25° C.
Afterwards ADP-Glo™ Reagent was added and the mixture was incubated at 25° C. for 60 minutes. Then Kinase Detection Reagent was added and the final mixture was incubated at 25° C. for 60 minutes. The luminescence signal of the final solution was measured on an Envision instrument (PerkinElmer). The percent (%) inhibition at each concentration of a compound is calculated relative to the luminescence signal in the Max and Min control wells contained within each assay plate. […] The concentrations and percent inhibition values for a test compound are plotted and the concentration of the compound required to achieve 50% inhibition (IC50) is determined with a four-parameter logistic dose response equation.

[1] = tested on: Neonatal Rat Ventricular Myocytes (NRVMs); assay: Myocyte proliferation assay (EdU assay) in neonatal rat ventricular myocytes; type: cell-based; settings: growth relative to blank myocyte growth without compound added; for Avg 1 uM (average myocyte proliferation): compound 1 uM; for Avg 3 uM (average myocyte proliferation): compound 3 uM; for Avg 10 uM (average myocyte proliferation): compound 10 uM
Description: 1. Isolation of and Culture Neonatal Rat Ventricular Myocytes (NRVMs)
Ventricles from neonatal rats were separated from the atria, cut into small pieces (about 2×2 mm^2) and then dissociated in Ca2+-free HBSS containing 0.125 mg ml-1 trypsin (Gibco), 10 μg ml-1 DNase II (Sigma) and 0.1 mg ml-1 collagenase type IV (Sigma). The digestion was carried out under constant stirring at 37° C. for 5 min. The supernatant was collected with FBS (Gibco) after each digestion period. After digestion, the collected supernatant was centrifuged at 1000 g for 10 min at room temperature, and then cell pellets were resuspended in DMEM (Gibco) supplemented with 10% FBS and with 100 uM 5-bromo-2′-deoxyuridine (Sigma). The resuspended cells were passed through a cell strainer ([…], BD Falcon) and seeded onto 100-mm plastic dishes for 2 h at 37° C. in a 5% CO2 to remove fibroblasts, the supernatant was then collected and plated onto 1% gelatin (Sigma)-coated dishes. 24 h after the seeding, the medium was changed to DMEM (Gibco) containing 2% FBS (Gibco), 1% insulin-transferrin-selenium (ITS; Gibco), 1% Penicillin-Streptomycin (Gibco). After 24 hours of low serum culture, remove the medium with DMEM (Gibco) containing 6% FBS (Gibco), 1% insulin-transferrin-selenium (ITS; Gibco), 1% Penicillin-Streptomycin (Gibco), different concentrations of compounds (the compounds were pre-diluted in the medium and the drug concentration was 10 uM, 3 uM, 1 uM, fully mixed). After 36 h add Edu substrate (Invitrogen) according to the manufacturer's guidelines, and then after 12 h cell can be used.
• 2.1. Immobilization: Remove the medium and fix the cells with […] in 200 ul (whichever is covered) for 15 min and wash the cells twice with 500 ul of PBS for 5 min each time. • 2.2. Broken membrane: Add 200 ul of 0.3% Triton-X 100 (diluted in PBS) to each well, incubate for 10-15 min at room temperature (the time should not be too long), and wash the cells twice with 500 ul of PBS for 5 min each time. • 2.3. Blocking: Add 200 ul of 10% normal goat serum (diluted with 0.1% PBST) to each well, incubate for 1 h at room temperature, and wash twice with 500 ul of 0.1% PBST for 5 min each time. • 2.4. Primary antibody: dilute the primary antibody (abcam, ab8295) to blocking solution at a ratio of 1:200, add 100 ul per well, incubate for 1 h at room temperature (may be slightly longer than 2-3 h), wash the cells twice with 500 ul 0.1% PBST for 5 min each time. • 2.5. Secondary antibody: Dilute the fluorescently labeled secondary antibody (abcam, ab150117) into blocking solution at a ratio of 1:200, add 100 ul per well, incubate for 1 h at room temperature (the time should not be too long), wash the cells twice with 0.1% PBST for 5 min each time, pay attention to the whole process. Protected from light. • 2.6. Edu staining (Invitrogen C10338) • 2.6.1 Prepare Click-iT® reaction cocktail according to Table 3. It was important to add the ingredients in the order listed in the table; otherwise, the reaction would not proceed optimally. Use the Click-iT® reaction cocktail within 15 minutes of preparation.
• 2.6.2 Add 0.1 mL of Click-iT® reaction cocktail to each well containing a coverslip. Rock the plate briefly to ensure that the reaction cocktail is distributed evenly over the coverslip. • 2.6.3 Incubate the plate for 30 minutes at room temperature, protected from light. • 2.6.4 Remove the reaction cocktail, then wash the cells twice with 0.1% PBST for 5 min each time. • 2.7. DAPI staining: DAPI stain was diluted to PBS at a ratio of 1:1000, 100 ul per well, incubated for 30 min at room temperature, and the cells were washed twice with PBS for 5 min each. 3. Data Analysis
We used Molecular Devices' Image Xpress Micro Confocal for high-throughput photo and data analysis.

T1 sequence (P49759 129-484 limits assumed): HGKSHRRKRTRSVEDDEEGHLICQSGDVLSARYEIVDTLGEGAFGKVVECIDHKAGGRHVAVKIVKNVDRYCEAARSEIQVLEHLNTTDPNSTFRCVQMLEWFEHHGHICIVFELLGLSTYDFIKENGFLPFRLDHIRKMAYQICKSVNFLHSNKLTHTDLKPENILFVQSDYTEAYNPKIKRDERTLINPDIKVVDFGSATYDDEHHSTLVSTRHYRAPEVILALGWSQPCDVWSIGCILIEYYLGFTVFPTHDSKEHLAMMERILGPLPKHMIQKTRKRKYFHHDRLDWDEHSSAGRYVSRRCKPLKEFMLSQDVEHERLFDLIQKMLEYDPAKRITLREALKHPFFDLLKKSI

CC(C)NC1=N/C(=C\c2ccc3ncsc3c2)C(=O)N1C [Example 45, (Z)-5-(benzo[d]thiazol-6-ylmethylene)-2-(isopropylamino)-3-methyl-3,5-dihydro-4H-imidazol-4-one]
IC50 (human CLK1): < 100 nM
Avg 1 uM (average myocyte proliferation) [1]: ** (10%-50%)
Avg 3 uM (average myocyte proliferation) [1]: ** (10%-50%)
Avg 10 uM (average myocyte proliferation) [1]: ** (10%-50%)

Cn1cnc2cc(/C=C3\N=C(Nc4ccccc4)NC3=O)ccc21 [Example 71, (Z)-5-((1-methyl-1H-benzo[d]imidazol-5-yl)methylene)-2-(phenylamino)-3,5-dihydro-4H-imidazol-4-one]
IC50 (human CLK1): > 10000 nM
Avg 1 uM (average myocyte proliferation) [1]: * (<10% growth relative to blank myocyte growth without compound added.)
Avg 3 uM (average myocyte proliferation) [1]: * (<10% growth relative to blank myocyte growth without compound added.)

O=C1NC(Nc2ccccc2)=N/C1=C\c1ccc2[nH]cnc2c1 [Example 26, (Z)-5-((1H-benzo[d]imidazol-5-yl)methylene)-2-(phenylamino)-3,5-dihydro-4H-imidazol-4-one]
IC50 (human CLK1): < 100 nM
Avg 1 uM (average myocyte proliferation) [1]: * (<10% growth relative to blank myocyte growth without compound added.)
Avg 3 uM (average myocyte proliferation) [1]: * (<10% growth relative to blank myocyte growth without compound added.)
Avg 10 uM (average myocyte proliferation) [1]: * (<10% growth relative to blank myocyte growth without compound added.)

CN(C1=N/C(=C\c2ccc3c(c2)OCO3)C(=O)N1)c1ccc(N)cc1 [Example 37, (Z)-2-((4-aminophenyl)(methyl)amino)-5-(benzo[d][1,3]dioxol-5-ylmethylene)-3,5-dihydro-4H-imidazol-4-one]
IC50 (human CLK1): 1000 to 10000 nM
Avg 1 uM (average myocyte proliferation) [1]: *** (>50%)
Avg 3 uM (average myocyte proliferation) [1]: ** (10%-50%)
Avg 10 uM (average myocyte proliferation) [1]: ** (10%-50%)

O=C1NC(Nc2ccc3ncsc3c2)=N/C1=C\c1ccc2c(c1)OCCO2 [Example 74, (Z)-2-(benzo[d]thiazol-6-ylamino)-5-((2,3-dihydrobenzo[b][1,4]dioxin-6-yl)methylene)-3,5-dihydro-4H-imidazol-4-one]
IC50 (human CLK1): > 10000 nM
Avg 1 uM (average myocyte proliferation) [1]: * (<10% growth relative to blank myocyte growth without compound added.)
Avg 3 uM (average myocyte proliferation) [1]: *** (>50%)

CC(C)NC1=N/C(=C\c2ccc3scnc3c2)C(=O)N1 [Example 49, (Z)-5-(benzo[d]thiazol-5-ylmethylene)-2-(isopropylamino)-3,5-dihydro-4H-imidazol-4-one]
IC50 (human CLK1): > 10000 nM
Avg 1 uM (average myocyte proliferation) [1]: * (<10% growth relative to blank myocyte growth without compound added.)
Avg 3 uM (average myocyte proliferation) [1]: ** (10%-50%)
Avg 10 uM (average myocyte proliferation) [1]: *** (>50%)

O=C1NC(Nc2ccccc2)=N/C1=C\c1ccc2occc2c1 [Example 52, (Z)-5-(benzofuran-5-ylmethylene)-2-(phenylamino)-3,5-dihydro-4H-imidazol-4-one]
IC50 (human CLK1): 100 to 1000 nM
Avg 1 uM (average myocyte proliferation) [1]: ** (10%-50%)
Avg 3 uM (average myocyte proliferation) [1]: ** (10%-50%)
Avg 10 uM (average myocyte proliferation) [1]: ** (10%-50%)

O=C1NC(Nc2ccccc2)=N/C1=C\c1ccc2nccnc2c1 [Example 16, (Z)-2-(phenylamino)-5-(quinoxalin-6-ylmethylene)-3,5-dihydro-4H-imidazol-4-one]
IC50 (human CLK1): < 100 nM
Avg 1 uM (average myocyte proliferation) [1]: * (<10% growth relative to blank myocyte growth without compound added.)
Avg 3 uM (average myocyte proliferation) [1]: * (<10% growth relative to blank myocyte growth without compound added.)

O=C1NC(N(CC2CC2)c2ccccc2)=N/C1=C\c1ccc2c(c1)OCCO2 [Example 39, (Z)-2-((cyclopropylmethyl)(phenyl)amino)-5-((2,3-dihydrobenzo[b][1,4]dioxin-6-yl)methylene)-3,5-dihydro-4H-imidazol-4-one]
IC50 (human CLK1): > 10000 nM
Avg 1 uM (average myocyte proliferation) [1]: *** (>50%)
Avg 3 uM (average myocyte proliferation) [1]: ** (10%-50%)
Avg 10 uM (average myocyte proliferation) [1]: * (<10% growth relative to blank myocyte growth without compound added.)

O=C1NC(N(Cc2ccccc2)c2ccccc2)=N/C1=C\c1ccc2[nH]cnc2c1 [Example 35, (Z)-5-((1H-benzo[d]imidazol-5-yl)methylene)-2-(benzyl(phenyl)amino)-3,5-dihydro-4H-imidazol-4-one]
IC50 (human CLK1): 100 to 1000 nM
Avg 1 uM (average myocyte proliferation) [1]: * (<10% growth relative to blank myocyte growth without compound added.)
Avg 3 uM (average myocyte proliferation) [1]: * (<10% growth relative to blank myocyte growth without compound added.)

COc1ccc(N(C)C2=N/C(=C\c3ccc4c(c3)OCO4)C(=O)N2)cc1 [Example 12, (Z)-5-(benzo[d][1,3]dioxol-5-ylmethylene)-2-((4-methoxyphenyl)(methyl)amino)-3,5-dihydro-4H-imidazol-4-one]
IC50 (human CLK1): 100 to 1000 nM
Avg 1 uM (average myocyte proliferation) [1]: * (<10% growth relative to blank myocyte growth without compound added.)
Avg 3 uM (average myocyte proliferation) [1]: ** (10%-50%)
